Tested on: tandem Na+ and c-di-AMP riboswitch (DUF1646_cdA_WT transcript) (RNA, riboswitch) AUUUAUAAGGUUACUUUCGGUUGGAAUGGUUAUUACCAUUUUCAAGAGAAGCGGGCUCUGGGGUGGGAGGCUACCAAAUAUUGGUAUAGCUAUCCACCUUUAUUUAUUUUUUUUAAGACAACAACUGAAUAUAUUUAUACGCUGAAUCCGUUAGGAACGGGAGACCCAAAUAAUAGGGGUGAAUCCAAAGCGGUUGCUUUGGUAGGGUUAAGCUCUUUCGACCCGAAUCCGUCAGCUAAUCUCGUAAGCGGUGGAAGAGAAGGUGAUUGAUAUGCUUAAUUACACCUUUAGUUAAGGUAUAUAUUUUAGCAUACGCUGCAGAUACUUCUCUGCAGCUUUUUGUUUUAUAUACCACAAAUGUUGAGGAUGACAAUCUUCAAUGAGAAUCUGAAGGAGGAAUUAAAUAAUAUGGGAUCCAAAGGA
Experiment: in vitro single-round transcription termination
Conditions: K+ 100 mM, Mg2+ 4 mM; 40 mM Tris-HCl pH 7.5, 37 °C; E. coli RNA polymerase; functional co-transcriptional response, no constant

- binding: yes
Structure (SMILES): Nc1ncnc2c1ncn2[C@@H]1O[C@@H]2COP(=O)(O)O[C@H]3[C@@H](O)[C@H](n4cnc5c(N)ncnc54)O[C@@H]3COP(=O)(O)O[C@H]2[C@H]1O

Reference: publication PMC9337991 (2022)
